Calls of active or inactive are those of the source. The calls are words filed in the database; no cut-off is given here.
Tests used:
[1] = target: T1, Phosphatidylinositol 4,5-bisphosphate 3-kinase catalytic subunit alpha isoform (Homo sapiens, UniProt P42336); test: Inhibition of PI3K alpha (unknown origin) using lipid substrate measured after 40 mins in presence of ATP by Kinase-Glo plus reagent based luminescence assay
[2] = system: HCT-116; test: Antiproliferative activity against human HCT116 cells harboring PIK3CA mutant H1047R measured after 72 hrs by MTT assay; format: functional, cell-based; conditions: HCT-116, 72 h
[3] = system: MCF7; test: Antiproliferative activity against human MCF7 cells harboring PIK3CA mutant E545K measured after 72 hrs by MTT assay; format: functional, cell-based; conditions: MCF7, 72 h
[4] = system: SU-DHL-6; test: Antiproliferative activity against human SUDHL6 cells measured after 72 hrs by CCK-8 assay; format: functional, cell-based; conditions: SU-DHL-6, 72 h
[5] = target: Phosphatidylinositol 4,5-bisphosphate 3-kinase catalytic subunit beta isoform (Homo sapiens, UniProt P42338); test: Inhibition of PI3K beta (unknown origin) using lipid substrate measured after 40 mins in presence of ATP by Kinase-Glo plus reagent based luminescence assay
[6] = target: Phosphatidylinositol 4,5-bisphosphate 3-kinase catalytic subunit gamma isoform (Homo sapiens, UniProt P48736); test: Inhibition of PI3K gamma (unknown origin) using lipid substrate measured after 40 mins in presence of ATP by Kinase-Glo plus reagent based luminescence assay
[7] = target: T2, Phosphatidylinositol 4,5-bisphosphate 3-kinase catalytic subunit delta isoform (Homo sapiens, UniProt O00329); test: Inhibition of PI3K delta (unknown origin) using lipid substrate measured after 40 mins in presence of ATP by Kinase-Glo plus reagent based luminescence assay
T2 sequence (O00329 whole entry): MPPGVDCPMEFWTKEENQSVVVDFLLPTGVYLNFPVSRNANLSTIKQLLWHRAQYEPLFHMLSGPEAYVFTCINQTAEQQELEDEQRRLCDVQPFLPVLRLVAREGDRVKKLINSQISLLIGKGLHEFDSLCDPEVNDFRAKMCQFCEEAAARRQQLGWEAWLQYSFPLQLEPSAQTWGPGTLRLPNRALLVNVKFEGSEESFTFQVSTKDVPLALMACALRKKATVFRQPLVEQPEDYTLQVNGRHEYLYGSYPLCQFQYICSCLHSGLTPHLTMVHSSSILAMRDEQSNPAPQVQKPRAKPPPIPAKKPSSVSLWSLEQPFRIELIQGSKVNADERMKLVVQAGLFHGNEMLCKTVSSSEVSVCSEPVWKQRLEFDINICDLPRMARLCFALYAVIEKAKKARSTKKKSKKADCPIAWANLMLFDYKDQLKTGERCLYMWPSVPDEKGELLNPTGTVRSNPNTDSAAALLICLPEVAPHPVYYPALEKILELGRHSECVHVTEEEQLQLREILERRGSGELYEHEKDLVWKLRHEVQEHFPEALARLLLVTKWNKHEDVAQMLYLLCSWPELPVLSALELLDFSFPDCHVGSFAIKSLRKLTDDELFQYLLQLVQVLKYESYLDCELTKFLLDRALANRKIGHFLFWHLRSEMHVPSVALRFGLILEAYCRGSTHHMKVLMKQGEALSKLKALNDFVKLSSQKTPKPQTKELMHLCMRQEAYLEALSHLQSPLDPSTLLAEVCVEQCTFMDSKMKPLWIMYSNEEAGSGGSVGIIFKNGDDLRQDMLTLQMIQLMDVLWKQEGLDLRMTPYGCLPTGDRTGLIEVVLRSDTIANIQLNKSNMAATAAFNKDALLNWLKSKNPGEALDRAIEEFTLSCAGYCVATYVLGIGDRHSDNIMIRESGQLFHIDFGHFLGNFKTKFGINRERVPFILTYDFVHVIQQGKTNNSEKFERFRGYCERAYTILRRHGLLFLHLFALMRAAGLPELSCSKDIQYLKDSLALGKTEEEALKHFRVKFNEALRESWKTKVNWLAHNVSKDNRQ

[8] = species: Homo sapiens; test: Selectivity ratio of IC50 for inhibition of PI3K beta (unknown origin) to IC50 for inhibition of PI3K alpha (unknown origin)
[9] = species: Homo sapiens; test: Selectivity ratio of IC50 for inhibition of PI3K delta (unknown origin) to IC50 for inhibition of PI3K alpha (unknown origin)
[10] = species: Homo sapiens; test: Selectivity ratio of IC50 for inhibition of PI3K gamma (unknown origin) to IC50 for inhibition of PI3K alpha (unknown origin)
[11] = Inhibition of PI3K/AKT/mTOR signaling in human HCT116 cells assessed as decrease in AKT phosphorylation at S473 at 1 uM measured after 5 hrs by Western blot analysis; format: cell-based
[12] = Inhibition of PI3K/AKT/mTOR signaling in human HCT116 cells assessed as decrease in AKT phosphorylation at S473 measured after 5 hrs by Western blot analysis; format: cell-based
[13] = system: HCT-116; test: Antitumour activity against human HCT116 cells xenografted in BALB/c nude mouse assessed as tumour volume at 5 mg/kg, po via gavage administered once daily for 15 days and measure every three days by caliper method (reference value: 2769 +/- 536 mm3); format: functional
[14] = system: HCT-116; test: Antitumour activity against human HCT116 cells xenografted in BALB/c nude mouse assessed as tumour volume at 25 mg/kg, po via gavage administered once daily for 15 days and measure every three days by caliper method (reference value: 2769 +/- 536 mm3); format: functional
[15] = system: HCT-116; test: Antitumour activity against human HCT116 cells xenografted in BALB/c nude mouse assessed as tumour growth inhibition at 5 mg/kg, po via gavage administered once daily for 15 days and measure every three days by caliper method relative to control; format: functional; conditions: HCT-116, po, read-out: TGI
[16] = system: HCT-116; test: Antitumour activity against human HCT116 cells xenografted in BALB/c nude mouse assessed as tumour growth inhibition at 25 mg/kg, po via gavage administered once daily for 15 days and measure every three days by caliper method relative to control; format: functional; conditions: HCT-116, po, read-out: TGI
[17] = system: HCT-116; test: Antitumour activity against human HCT116 cells xenografted in BALB/c nude mouse assessed as tumour weight at 5 mg/kg, po via gavage administered once daily for 15 days and measure every three days by caliper method (reference value: 3.2 +/- 0.32 g); format: functional
[18] = system: HCT-116; test: Antitumour activity against human HCT116 cells xenografted in BALB/c nude mouse assessed as tumour weight at 25 mg/kg, po via gavage administered once daily for 15 days and measure every three days by caliper method (reference value: 3.2 +/- 0.32 g); format: functional
[19] = Toxicity in BALB/c nude mouse xenografted with human HCT116 cells assessed as effect on body weight at 5 to 25 mg/kg, po via gavage administered once daily for 15 days; format: organism-based; conditions: in vivo, 360 h
[20] = target: T1, Phosphatidylinositol 4,5-bisphosphate 3-kinase catalytic subunit alpha isoform; test: Potency index, ratio of 2-methoxy-5-(4-(2-morpholinoethylamino)quinazolin-6-yl)nicotinonitrile IC50 to test compound IC50 for inhibition of PI3K alpha (unknown origin)

Chain of Phosphatidylinositol 4,5-bisphosphate 3-kinase catalytic subunit beta isoform (P42338 whole entry, canonical isoform): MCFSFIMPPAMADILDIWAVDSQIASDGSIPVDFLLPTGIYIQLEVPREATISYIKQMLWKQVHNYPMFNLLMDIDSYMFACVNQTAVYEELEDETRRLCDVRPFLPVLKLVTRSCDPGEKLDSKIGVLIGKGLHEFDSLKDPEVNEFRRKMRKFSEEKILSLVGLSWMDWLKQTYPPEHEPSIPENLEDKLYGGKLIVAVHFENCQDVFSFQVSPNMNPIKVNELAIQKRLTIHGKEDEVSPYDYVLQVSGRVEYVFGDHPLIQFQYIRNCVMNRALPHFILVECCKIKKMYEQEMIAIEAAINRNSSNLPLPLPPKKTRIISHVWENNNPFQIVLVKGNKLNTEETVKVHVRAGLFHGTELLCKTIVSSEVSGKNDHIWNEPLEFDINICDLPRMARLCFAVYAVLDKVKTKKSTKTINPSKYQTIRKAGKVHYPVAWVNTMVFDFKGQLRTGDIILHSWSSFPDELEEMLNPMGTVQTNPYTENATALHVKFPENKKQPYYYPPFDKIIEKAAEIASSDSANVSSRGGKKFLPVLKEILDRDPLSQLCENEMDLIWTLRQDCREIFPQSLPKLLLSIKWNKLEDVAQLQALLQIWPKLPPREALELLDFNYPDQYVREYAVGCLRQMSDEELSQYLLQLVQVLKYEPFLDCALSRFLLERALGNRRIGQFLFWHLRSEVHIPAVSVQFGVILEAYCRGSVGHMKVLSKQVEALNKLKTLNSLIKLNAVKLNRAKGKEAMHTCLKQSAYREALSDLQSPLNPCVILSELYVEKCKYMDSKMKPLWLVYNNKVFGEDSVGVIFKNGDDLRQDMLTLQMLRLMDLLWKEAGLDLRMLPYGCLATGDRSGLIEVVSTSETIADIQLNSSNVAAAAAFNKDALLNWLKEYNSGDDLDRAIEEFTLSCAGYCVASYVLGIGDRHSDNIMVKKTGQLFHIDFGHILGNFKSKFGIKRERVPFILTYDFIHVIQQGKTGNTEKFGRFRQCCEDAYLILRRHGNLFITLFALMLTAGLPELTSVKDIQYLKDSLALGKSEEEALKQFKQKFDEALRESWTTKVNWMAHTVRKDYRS
Chain of Phosphatidylinositol 4,5-bisphosphate 3-kinase catalytic subunit gamma isoform (P48736 whole entry, canonical isoform): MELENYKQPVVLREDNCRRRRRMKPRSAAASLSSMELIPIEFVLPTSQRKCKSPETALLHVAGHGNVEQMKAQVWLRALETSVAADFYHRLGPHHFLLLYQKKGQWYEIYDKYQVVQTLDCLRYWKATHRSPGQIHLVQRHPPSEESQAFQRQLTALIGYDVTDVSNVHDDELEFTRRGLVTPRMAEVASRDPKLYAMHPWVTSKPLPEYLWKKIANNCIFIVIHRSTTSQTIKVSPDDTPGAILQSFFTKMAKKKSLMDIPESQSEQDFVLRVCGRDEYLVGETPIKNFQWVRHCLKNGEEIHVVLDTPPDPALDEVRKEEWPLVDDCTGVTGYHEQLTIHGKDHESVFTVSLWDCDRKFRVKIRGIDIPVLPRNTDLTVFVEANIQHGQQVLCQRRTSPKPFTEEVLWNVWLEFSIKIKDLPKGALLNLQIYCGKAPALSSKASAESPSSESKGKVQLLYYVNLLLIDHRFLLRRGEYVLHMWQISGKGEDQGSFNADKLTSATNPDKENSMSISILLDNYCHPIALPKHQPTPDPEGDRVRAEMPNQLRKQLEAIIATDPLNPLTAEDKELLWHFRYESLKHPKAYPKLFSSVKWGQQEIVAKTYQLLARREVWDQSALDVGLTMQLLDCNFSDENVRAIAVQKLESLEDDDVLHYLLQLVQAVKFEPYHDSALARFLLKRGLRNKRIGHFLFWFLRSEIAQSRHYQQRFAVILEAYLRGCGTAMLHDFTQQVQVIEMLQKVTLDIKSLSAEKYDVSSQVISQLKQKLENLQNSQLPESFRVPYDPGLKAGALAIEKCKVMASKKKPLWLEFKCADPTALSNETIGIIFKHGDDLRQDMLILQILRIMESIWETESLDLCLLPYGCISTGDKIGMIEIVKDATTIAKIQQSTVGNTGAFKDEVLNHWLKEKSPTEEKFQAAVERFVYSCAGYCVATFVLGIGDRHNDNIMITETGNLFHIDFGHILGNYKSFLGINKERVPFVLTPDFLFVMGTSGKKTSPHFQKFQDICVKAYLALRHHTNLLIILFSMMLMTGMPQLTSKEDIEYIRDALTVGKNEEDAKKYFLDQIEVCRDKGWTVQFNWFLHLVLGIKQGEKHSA
T1 sequence (P42336 whole entry, canonical isoform): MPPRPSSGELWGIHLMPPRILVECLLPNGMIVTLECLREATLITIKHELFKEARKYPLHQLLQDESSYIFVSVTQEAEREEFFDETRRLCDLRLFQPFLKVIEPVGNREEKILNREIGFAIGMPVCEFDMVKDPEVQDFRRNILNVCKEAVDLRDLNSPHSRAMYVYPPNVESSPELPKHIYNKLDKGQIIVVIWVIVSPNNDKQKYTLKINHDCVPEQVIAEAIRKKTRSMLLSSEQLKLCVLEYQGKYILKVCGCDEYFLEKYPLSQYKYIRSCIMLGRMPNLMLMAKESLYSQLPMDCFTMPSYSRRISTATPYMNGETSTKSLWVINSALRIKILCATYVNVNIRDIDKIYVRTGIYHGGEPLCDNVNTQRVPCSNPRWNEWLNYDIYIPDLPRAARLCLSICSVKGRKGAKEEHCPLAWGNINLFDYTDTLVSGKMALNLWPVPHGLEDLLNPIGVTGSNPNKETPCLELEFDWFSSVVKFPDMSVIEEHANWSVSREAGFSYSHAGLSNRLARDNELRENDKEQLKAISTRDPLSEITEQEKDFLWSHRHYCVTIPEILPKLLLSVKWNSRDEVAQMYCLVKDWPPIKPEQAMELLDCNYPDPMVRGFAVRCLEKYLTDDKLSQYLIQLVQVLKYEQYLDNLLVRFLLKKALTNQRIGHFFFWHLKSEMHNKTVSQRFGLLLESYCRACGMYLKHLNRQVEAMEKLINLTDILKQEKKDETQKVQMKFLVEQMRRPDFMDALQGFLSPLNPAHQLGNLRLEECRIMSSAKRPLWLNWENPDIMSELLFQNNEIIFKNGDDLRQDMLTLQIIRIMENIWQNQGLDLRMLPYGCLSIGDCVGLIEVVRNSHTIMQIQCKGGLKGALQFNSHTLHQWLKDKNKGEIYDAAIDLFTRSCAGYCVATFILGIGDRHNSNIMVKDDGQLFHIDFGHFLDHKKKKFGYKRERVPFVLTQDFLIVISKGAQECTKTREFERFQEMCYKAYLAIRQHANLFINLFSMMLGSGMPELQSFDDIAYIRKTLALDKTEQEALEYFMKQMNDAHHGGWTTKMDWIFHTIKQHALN

| Compound | IC50 [1] | IC50 [2] | IC50 [3] | IC50 [4] | other results |
| --- | --- | --- | --- | --- | --- |
| COc1ncc(-c2ccc3ncnc(NC4CCN(C(=O)OC(C)(C)C)CC4)c3c2)cc1NS(C)(=O)=O | 7 nM | 1800 nM | 15000 nM | 9700 nM | – |
| COc1ncc(-c2ccc3ncnc(NC4CCN(C(=O)C5CCOCC5)CC4)c3c2)cc1NS(C)(=O)=O | 2.1 nM | 2900 nM | 6000 nM | ≥ 100000 nM | – |
| COc1ncc(-c2ccc3nccc(NCCN4CCOCC4)c3c2)cc1NS(C)(=O)=O | 106 nM | 29000 nM | 88000 nM | ≥ 100000 nM | – |
| COc1ncc(-c2ccc3ncnc(N[C@H]4CCN(C(=O)C(C)(C)C)C4)c3c2)cc1NS(C)(=O)=O | 2.6 nM | 2000 nM | 590 nM | 7600 nM | – |
| COc1ncc(-c2ccc3ncnc(NCCN4CCCCC4)c3c2)cc1NS(=O)(=O)C1CC1 | 34 nM | 5800 nM | 3200 nM | 410 nM | – |
| COc1ncc(-c2ccc3ncnc(NC4CCN(C(=O)C5CCCC5)CC4)c3c2)cc1NS(C)(=O)=O | 2.8 nM | 2800 nM | 7900 nM | 3300 nM | – |
| COc1ncc(-c2ccc3ncnc(NCCN(C)C)c3c2)cc1NS(C)(=O)=O | 7 nM | 8700 nM | 10000 nM | 1700 nM | – |
| COc1ncc(-c2ccc3ncnc(NCCN4CCOCC4)c3c2)cc1NS(=O)(=O)C1CC1 | 7.1 nM | 1900 nM | 1500 nM | 330 nM | – |
| COc1ncc(-c2ccc3ncnc(N(C)CCN(C)C)c3c2)cc1NS(C)(=O)=O | 7.7 nM | 5100 nM | 4700 nM | 1700 nM | – |
| COc1ncc(-c2ccc3ncnc(N[C@H]4CCN(C(=O)C5CCOCC5)C4)c3c2)cc1NS(C)(=O)=O | 0.7 nM | 1700 nM | 4800 nM | 1500 nM | IC50 [5]: 5.6 nM; IC50 [6]: 6.5 nM; IC50 [7]: 7.4 nM; Ratio IC50 [8]: 10; Ratio IC50 [9]: 10; Ratio IC50 [10]: 10 |
| COc1ncc(-c2ccc3ncnc(N[C@H]4CCN(C(=O)C5CCCC5)C4)c3c2)cc1NS(C)(=O)=O | 2.3 nM | 2100 nM | 2500 nM | 770 nM | – |

Now those with a lower IC50 [2], led by results:

| IC50 [1] | IC50 [2] | IC50 [3] | IC50 [4] | Compound | other results |
| --- | --- | --- | --- | --- | --- |
| 5.3 nM | 250 nM | 870 nM | 170 nM | COc1ncc(-c2ccc3ncnc(N[C@H]4CCN(C(=O)OC(C)(C)C)C4)c3c2)cc1NS(C)(=O)=O | – |
| 0.5 nM | 290 nM | 14000 nM | ≥ 100000 nM | COc1ncc(-c2ccc3ncnc(N[C@H]4CCN(C(C)=O)C4)c3c2)cc1NS(C)(=O)=O | IC50 [5]: 5 nM; IC50 [6]: 4.3 nM; IC50 [7]: 6.8 nM; Ratio IC50 [8]: 10; Ratio IC50 [9]: 10; Ratio IC50 [10]: 10 |
| 0.9 nM | 1300 nM | 11000 nM | ≥ 100000 nM | COc1ncc(-c2ccc3ncnc(NC4CCNCC4)c3c2)cc1NS(C)(=O)=O | – |
| – | 370 nM | 350 nM | 70 nM | Cn1c(=O)n(-c2ccc(C(C)(C)C#N)cc2)c2c3cc(-c4cnc5ccccc5c4)ccc3ncc21 [DACTOLISIB] | inhibition [11]: Active |
| 12 nM | 1600 nM | 3700 nM | 320 nM | COc1ncc(-c2ccc3ncnc(NCCN4CCCCC4)c3c2)cc1NS(C)(=O)=O | – |
| 0.4 nM | 720 nM | 16000 nM | 4300 nM | COc1ncc(-c2ccc3ncnc(NC4CCN(C(C)=O)CC4)c3c2)cc1NS(C)(=O)=O | – |
| 4.5 nM | 820 nM | 990 nM | 190 nM | COc1ncc(-c2ccc3ncnc(NCCN4CCOCC4)c3c2)cc1NS(C)(=O)=O | IC50 [5]: 16 nM; IC50 [6]: 6 nM; IC50 [7]: 2.2 nM; inhibition [12]: Dose-dependent effect; Activity [13]: 1299 mm3; Activity [14]: 992 mm3; inhibition in vivo at 5 mg/kg [15]: 53%; inhibition in vivo at 25 mg/kg [16]: 62%; Activity [17]: 2 g; Activity [18]: 1.6 g; Activity [19]: Non-Toxic; Ratio IC50 [20]: 100 |
| 1 nM | 1000 nM | 3700 nM | 3000 nM | COc1ncc(-c2ccc3ncnc(N[C@H]4CCN(C(=O)C5CC5)C4)c3c2)cc1NS(C)(=O)=O | – |

Source: ChEMBL document CHEMBL4304761, “Alkylsulfonamide-containing quinazoline derivatives as potent and orally bioavailable PI3Ks inhibitors” (Bioorg Med Chem, 2019)
